Patent publication US8202897B2, “Inhibitors of glutaminyl cyclases” (Probiodrug AG, priority 2007, dated 2012)

Assays:
glutaminyl cyclase (QC) = glutaminyl cyclase (QC) (Homo sapiens, UniProt Q16769); assay: QC inhibitor assay (fluorometric/spectrophotometric QC activity assay with inhibitor added)
glutaminyl cyclase (QC), sequence (Q16769 29-361): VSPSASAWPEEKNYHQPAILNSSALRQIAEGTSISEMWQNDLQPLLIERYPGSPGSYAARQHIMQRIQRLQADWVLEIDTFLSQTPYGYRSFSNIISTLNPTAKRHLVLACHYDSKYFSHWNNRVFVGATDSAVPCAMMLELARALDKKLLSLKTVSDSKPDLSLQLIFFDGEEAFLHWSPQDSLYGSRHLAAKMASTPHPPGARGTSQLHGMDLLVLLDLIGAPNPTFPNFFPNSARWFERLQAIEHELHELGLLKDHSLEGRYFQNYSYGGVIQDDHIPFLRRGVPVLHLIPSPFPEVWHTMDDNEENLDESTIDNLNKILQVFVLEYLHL
Method: All measurements were performed with a BioAssay Reader HTS-7000Plus for microplates (Perkin Elmer) at 30° C. QC activity was evaluated fluorometrically using H-Gln-βNA. The samples consisted of 0.2 mM fluorogenic substrate, 0.25 U pyroglutamyl aminopeptidase (Unizyme, Hørsholm, Denmark) in 0.2 M Tris/HCl, pH 8.0 containing 20 mM EDTA and an appropriately diluted aliquot of QC in a final volume of 250 μl. Excitation/emission wavelengths were 320/410 nm. The assay reactions were initiated by addition of glutaminyl cyclase. QC activity was determined from a standard curve of β-naphthylamine under assay conditions. One unit is defined as the amount of QC catalyzing the formation of 1 μmol pGlu-βNA from H-Gln-βNA per minute under the described conditions.
In a second fluorometric assay, QC was activity determined using H-Gln-AMC as substrate. Reactions were carried out at 30° C. utilizing the NOVOStar reader for microplates (BMG labtechnologies). The samples consisted of varying concentrations of the fluorogenic substrate, 0.1 U pyroglutamyl aminopeptidase (Qiagen) in 0.05 M Tris/HCl, pH 8.0 containing 5 mM EDTA and an appropriately diluted aliquot of QC in a final volume of 250 μl. Excitation/emission wavelengths were 380/460 nm. The assay reactions were initiated by addition of glutaminyl cyclase. […] The kinetic data were evaluated using GraFit software.
Samples consisted of the respective QC substrate, 0.3 mM NADH, 14 mM α-Ketoglutaric acid and 30 U/ml glutamate dehydrogenase in a final volume of 250 μl. […] All samples were measured at 30° C., using either the [sequence]luor Plus or the Sunrise (both from TECAN) reader for microplates. Kinetic data was evaluated using GraFit software.
For inhibitor testing, the sample composition was the same as described above, except of the putative inhibitory compound added. For a rapid test of QC-inhibition, samples contained 4 mM of the respective inhibitor and a substrate concentration at 1 KM. For detailed investigations of the inhibition and determination of Ki-values, influence of the inhibitor on the auxiliary enzymes was investigated first. […] The inhibitory constant was evaluated by fitting the set of progress curves to the general equation for competitive inhibition using GraFit software.

| Compound | IC50 (glutaminyl cyclase (QC)) [µM] | Ki (glutaminyl cyclase (QC)) [µM] | melting point [°C] |
| --- | --- | --- | --- |
| CCCCN/C(=C/[N+](=O)[O-])NCCCn1ccnc1 [Example 1, N-(3-(1H-imidazol-1-yl)propyl)-N-butyl-2-nitroethene-1.1-diamine] | 13.2 | 2.19 | – |
| O=[N+]([O-])/C=C(\NCCCn1ccnc1)Nc1ccc2c(c1)OCO2 [Example 9, N-(1-(3-(1H-imidazol-1-yl)propylamino)-2-nitrovinyl)benzo[d][1.3]dioxol-5-amine] | 7.93 | 0.95 | – |
| COc1ccc(N/C(=C/[N+](=O)[O-])NCCCn2ccnc2)c(OC)c1 [Example 10, N-(1-(3-(1H-imidazol-1-yl)propylamino)-2-nitrovinyl)-2.4-dimethoxy-benzenamine] | 8.89 | 0.92 | – |
| COc1cc(N/C(=C/[N+](=O)[O-])NCCCn2ccnc2)cc(OC)c1OC [Example 11, N-(1-(3-(1H-imidazol-1-yl)propylamino)-2-nitrovinyl)-3.4.5-trimethoxy-benzenamine] | 6.41 | 0.74 | 41 to 43 |
